# Measured values from publication PMC11202002, “P18: Novel Anticancer Peptide from Induced Tumor-Suppressing Cells Targeting Breast Cancer and Bone Metastasis” (Cancers, 2024).
# What was measured:
# [1] = test system: MDA-MB-436 breast cancer cells; test: Western blot analysis; assay type: cell-based, human; conditions: 25 µg/mL
# Experimental: (§1) Cells were lysed using a RIPA lysis buffer (sc-24948, Santa Cruz Biotech, Dallas, TX, USA) containing protease inhibitors (PIA32963, Thermo Fisher) and phosphatase inhibitors (2006643, Cal-biochem, Billerica, MA, USA). The proteins were separated on 10–15% SDS gels (Bio-Rad Laboratories, Hercules, CA, USA) and transferred to a polyvinylidene difluoride membrane (IPVH00010, Millipore, Billerica, MA, USA). The membrane was incubated with primary antibodies, followed by incubation with secondary antibodies (7074S/7076S, Cell Signaling, Danvers, MA, USA). The antibodies used included those against Snail, p-Src, Src, cleaved caspase 3, caspase 3, RANKL, Cdc42, Col1 and RhoA (Cell Signaling), ALP (Santa Cruz Biotech), OCN (Abcam, Boston, MA, USA), with β-actin (Sigma) as a control. The protein levels were detected using SuperSignal West Femto Maximum Sensitivity Substrate (PI34096, Thermo Fisher) and a luminescent image analyzer (LAS-3000, Fuji Film, Tokyo, Japan).
# [2] = test system: MDA-MB-231 breast cancer cells; test: Western blot analysis; assay type: cell-based, human; conditions: 25 µg/mL
# Experimental: as §1
# RhoA = test: FRET-based GTPase activity assay; assay type: cell-based; conditions: MDA-MB-231 cells; 25 µg/mL for 3 h
# Source text: (§2) The three FRET GTPase biosensors were utilized to monitor the activities of Rac1, Cdc42, and RhoA in response to ACPs. GTPase activity was estimated based on the emission ratio of yellow fluorescent protein (YFP) to cyan fluorescent protein (CFP), using a Nikon Ti-E inverted microscope with an EMCCD camera (Photometrics, Tucson, AZ, USA), a filter wheel controller (Sutter Instruments, Novato, CA, USA), and a Nikon Perfect Focus System. To reduce photobleaching, an Intensilight fluorescence illuminator (Nikon, Tokyo, Japan) was employed with a neutral-density 32 filter (3% transmittance). The images were captured with a 40× (0.75 numerical aperture) objective, and they were scaled utilizing the color bar, as previously published.
# (§3) This study next investigated the role of P18 in regulating the activity of Rho family GTPases. MDA-MB-231 breast cancer cells were transfected with Rac1, Cdc42, or RhoA biosensors and treated with P18 at a concentration of 25 µg/mL for 3 h. The GTPase activity was assessed by measuring the emission ratio of the biosensor within individual live cells.
# Cdc42 = test: FRET-based GTPase activity assay; assay type: cell-based; conditions: MDA-MB-231 cells; 25 µg/mL for 3 h
# Source text: as §2, §3
# Rac1 = test: FRET-based GTPase activity assay; assay type: cell-based; conditions: MDA-MB-231 cells; 25 µg/mL for 3 h
# Source text: as §2, §3
# MDA-MB-231 cells [3] = test: Transwell invasion assay; assay type: cell-based, human; conditions: 25 µg/mL
# Experimental: (§4) The invasion capacity of cancer cells in response to ACPs was assessed using 8 µm pore transwell chambers (353182, Thermo Fisher) in a 12-well plate. The chambers were coated with 300 µL Matrigel (100 µg/mL) and filled with 500 µL of the serum-free medium. After washing the chamber three times with the serum-free medium, approximately 7 × 10^4 cells in 300 µL serum-free DMEM were placed in the upper chamber, while 800 µL medium was added to the lower chamber. Cells that migrated to the lower side of the membrane were fixed with methanol and stained with crystal violet. Five random images were captured with an inverted optical microscope at 100× magnification, and the average number of stained cells, representing the invasion capacity, was determined.
# MDA-MB-436 cells [4] = test: Transwell invasion assay; assay type: cell-based, human; conditions: 25 µg/mL
# Experimental: as §4
# [5] = test system: 4T1.2 mammary tumor cells; test: MTT-based cell viability assay; set-up: species or system mouse; conditions: 25 μg/mL
# Experimental: (§5) Using 96-well plates with approximately 2000 cells per well, an MTT-based metabolic activity assay was performed. The cells were treated with agents and incubated for two days. On the fourth day, they were stained with 0.5 mg/mL thiazolyl blue tetrazolium bromide (M5655, Sigma). The optical density, used to assess metabolic activity, was measured at 562 nm. For the EdU-based proliferation activity assay, the cells were seeded in 96-well plates at about 1000 cells per well. A fluorescence-based cell proliferation kit (Click-iT™, EdU Alexa Fluor™ 488 Imaging Kit; Thermo Fisher, Waltham, MA, USA) was used according to the manufacturer’s instructions.
# [6] = test system: 4T1.2 mammary tumor cells; test: Scratch-based motility assay; assay type: cell-based, mouse; conditions: 25 μg/mL
# Experimental: (§6) To evaluate the two-dimensional motility of cancer cells, a wound-healing scratch assay was utilized, and the change in the scratch area was determined. On day 1, ~3 × 10^5 cells were seeded in 12-well plates, and, on day 2, a scratch was made on the cell layer, with the tip of a plastic pipette. Using a light microscope (40×), cell-free zones were imaged after 0 h and 24 h, and the alteration in their areas was quantified by Image J (Version 1.54 f).
# Col1, ALP, OCN = test: Western blot analysis of osteoblast development proteins; assay type: cell-based; conditions: Suppl. Figure S1d
# Experimental: as §1
# MDA-MB-231 cells [7] = test: Scratch-based motility assay; assay type: cell-based, human; conditions: 25 µg/mL, 24 h
# Experimental: as §6
# MDA-MB-436 cells [8] = test: Scratch-based motility assay; assay type: cell-based, human; conditions: 25 µg/mL, 24 h
# Experimental: as §6
# [9] = test system: human triple-negative breast cancer tissue; test: Ex vivo cancer tissue assay; assay type: cell-based; conditions: 25 µg/mL of P18; four days (96 h); n = 6
# Experimental: The usage of human triple-negative breast cancer tissue was approved by the Indiana University Institutional Review Board (1911155674), and the tissues were received from the Indiana University Simon Comprehensive Cancer Center Tissue Procurement Core. Freshly isolated breast cancer tissue (~10 mg) was manually fragmented with a scalpel into small pieces (0.5~0.8 mm in length), which were grown in DMEM with 10% FBS and antibiotics for a day. […] The culture medium, consisting of these agents, was applied for 4 days, and a change in the fragment size was determined.
# Jurkat lymphocytes = assay type: cell-based
# Experimental: as §5
# MC3T3 osteoblasts = assay type: cell-based
# Experimental: as §5
sequence,measurement,setting,value
TDYMVGSYGPR [P18],levels of RhoA and Cdc42,[1],slight upregulation
same,levels of cleaved caspase 3,[1],increasing
same,levels of p-Src and Snail,[1],downregulated
same,levels of RhoA and Cdc42,[2],slight upregulation
same,levels of cleaved caspase 3,[2],increasing
same,levels of p-Src and Snail,[2],downregulated
same,RhoA GTPase activity (FRET biosensor emission ratio),RhoA,significant decrease
same,Cdc42 GTPase activity (FRET biosensor emission ratio),Cdc42,significant decrease
same,Rac1 GTPase activity (FRET biosensor emission ratio),Rac1,no significant change
same,transwell invasion,MDA-MB-231 cells [3],decreased
same,transwell invasion,MDA-MB-436 cells [4],inhibited
same,MTT-based viability,[5],consistently reduced
same,scratch-based mobility,[6],consistently reduced
same,"expression of type I collagen (Col1), alkaline phosphatase (ALP), and osteocalcin (OCN)","Col1, ALP, OCN",upregulated
same,scratch-based motility,MDA-MB-231 cells [7],effectively reduced
same,scratch-based mobility,MDA-MB-436 cells [8],inhibited
same,size of ex vivo breast tissue fragments,[9],significant decrease in the size
same,MTT viability,Jurkat lymphocytes,did not exhibit any significant effects
same,MTT viability,MC3T3 osteoblasts,did not exhibit any significant effects
